Results taken from patent US11065244B2, “Methods of use of tetrahydroberberine (THB)” (DIGNITY HEALTH, priority 2010, dated 2021).
pIC50: −log10 of the molar value.

Experiments:
[1] = test system: rat pancreatic islets; test: Insulin release from rat pancreatic islets; assay type: cell-based; details: 100 μM; 5.5 mM glucose external; from 22.5±1.2
Description: With 5.5 mM glucose in the external solution, basal insulin secretion was measured. […] Bath application of 100 μM THB increased insulin secretion from 22.5±1.2 to 39.4±1.5 pg/islet/min (FIG. 5; P<0.01; 6 cells) and 100 μM Ipt increased insulin secretion from 22.5±1.2 to 34.5±1.8 pg/islet/min (FIG. 11; P<0.05; 7 cells).

[2] = biological target: neuronal type and pancreatic type of KATP channels (Kir6.2SUR1) (Homo sapiens, UniProt Q09428+Q14654); details: relatively high concentrations; cited from earlier work
Sequence of neuronal type and pancreatic type of KATP channels (Kir6.2SUR1) (Q14654 whole entry, the tested form may be a part): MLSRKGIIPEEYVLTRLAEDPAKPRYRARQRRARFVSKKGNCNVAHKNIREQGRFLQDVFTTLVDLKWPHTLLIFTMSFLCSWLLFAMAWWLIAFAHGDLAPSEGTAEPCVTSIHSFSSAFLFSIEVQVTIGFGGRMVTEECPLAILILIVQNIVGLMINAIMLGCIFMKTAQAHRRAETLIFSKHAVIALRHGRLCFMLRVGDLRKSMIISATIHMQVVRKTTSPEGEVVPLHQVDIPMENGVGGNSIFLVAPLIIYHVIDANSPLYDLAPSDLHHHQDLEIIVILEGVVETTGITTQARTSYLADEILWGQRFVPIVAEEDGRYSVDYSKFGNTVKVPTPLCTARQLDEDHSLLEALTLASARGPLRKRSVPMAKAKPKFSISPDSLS
Sequence of neuronal type and pancreatic type of KATP channels (Kir6.2SUR1) (Q09428 whole entry, the tested form may be a part): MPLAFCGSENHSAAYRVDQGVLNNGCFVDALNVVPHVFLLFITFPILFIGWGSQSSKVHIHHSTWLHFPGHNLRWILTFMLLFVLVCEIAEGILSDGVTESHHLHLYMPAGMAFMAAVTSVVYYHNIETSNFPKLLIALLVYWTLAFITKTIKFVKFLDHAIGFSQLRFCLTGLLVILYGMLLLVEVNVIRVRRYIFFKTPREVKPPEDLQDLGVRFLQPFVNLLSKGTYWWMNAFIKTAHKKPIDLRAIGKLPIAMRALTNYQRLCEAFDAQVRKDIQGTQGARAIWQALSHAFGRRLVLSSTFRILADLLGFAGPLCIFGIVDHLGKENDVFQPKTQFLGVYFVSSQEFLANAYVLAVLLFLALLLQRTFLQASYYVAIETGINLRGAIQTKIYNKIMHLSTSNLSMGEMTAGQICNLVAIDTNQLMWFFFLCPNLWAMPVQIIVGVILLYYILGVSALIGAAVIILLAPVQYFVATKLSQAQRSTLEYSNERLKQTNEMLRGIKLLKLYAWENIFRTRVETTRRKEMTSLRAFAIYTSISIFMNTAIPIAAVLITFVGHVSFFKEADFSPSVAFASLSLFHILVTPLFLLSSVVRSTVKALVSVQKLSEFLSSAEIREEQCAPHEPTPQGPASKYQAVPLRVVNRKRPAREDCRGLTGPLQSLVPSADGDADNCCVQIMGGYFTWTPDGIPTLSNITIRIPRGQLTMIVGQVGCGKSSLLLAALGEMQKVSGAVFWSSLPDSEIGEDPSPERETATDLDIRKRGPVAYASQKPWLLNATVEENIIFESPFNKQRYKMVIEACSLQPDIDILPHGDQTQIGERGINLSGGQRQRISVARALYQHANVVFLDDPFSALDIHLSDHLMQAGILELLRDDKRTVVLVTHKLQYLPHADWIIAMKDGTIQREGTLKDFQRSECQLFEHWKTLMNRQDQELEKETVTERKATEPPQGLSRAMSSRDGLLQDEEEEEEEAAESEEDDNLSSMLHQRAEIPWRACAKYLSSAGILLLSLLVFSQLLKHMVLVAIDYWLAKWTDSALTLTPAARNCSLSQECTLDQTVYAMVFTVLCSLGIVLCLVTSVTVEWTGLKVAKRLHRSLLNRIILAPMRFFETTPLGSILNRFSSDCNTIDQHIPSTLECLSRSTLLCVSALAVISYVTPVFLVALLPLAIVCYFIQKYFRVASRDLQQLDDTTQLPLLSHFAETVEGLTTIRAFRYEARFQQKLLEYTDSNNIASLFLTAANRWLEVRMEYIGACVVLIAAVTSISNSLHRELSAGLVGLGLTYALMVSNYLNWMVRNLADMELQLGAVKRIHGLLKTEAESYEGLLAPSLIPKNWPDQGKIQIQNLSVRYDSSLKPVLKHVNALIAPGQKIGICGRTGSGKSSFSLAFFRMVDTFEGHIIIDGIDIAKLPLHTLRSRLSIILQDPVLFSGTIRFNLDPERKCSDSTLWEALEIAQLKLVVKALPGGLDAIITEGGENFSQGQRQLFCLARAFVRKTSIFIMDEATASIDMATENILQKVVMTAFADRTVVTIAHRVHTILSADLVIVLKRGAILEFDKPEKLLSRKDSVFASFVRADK

[3] = biological target: T1, Kir6.2/SUR2A (Homo sapiens, UniProt O60706+Q14654); test: Whole-cell voltage-clamp currents of KATP channel subtypes, cardiac type; assay type: cell-based; details: 100 μM perfused for 30 sec; currents at −100 mV; n=4
T1 construct: expressed in transfected cells
Description: (§1) Using whole-cell recordings in voltage-clamp mode, Command pulse protocol was set by the series test pulses with 100 ms duration that were applied between −100 and +50 mV in 10 mV steps from a holding potential of 0 mV (Top traces in FIG. 11, plots A-C). Representative effects of Ipt (100 μM perfused for 30 sec) on whole-cell current traces recorded from a cell expressed Kir6.2/SUR1 (A), Kir6.2/SUR2A (B) or Kir6.1/SUR2B (C). FIG. 11, plot D summarizes data for currents measured at −100 mV from A-C. Values are means±S.E.M. (n=4). *P<0.05, **P<0.01 vs. control.

[4] = biological target: T2, Kir6.2/SUR1 (Homo sapiens, UniProt Q09428+Q14654); test: Whole-cell voltage-clamp currents of KATP channel subtypes, pancreatic type; assay type: cell-based; details: 100 μM perfused for 30 sec; currents at −100 mV; n=4
T2 construct: expressed in transfected cells
T2 sequence (Q14654 whole entry, the tested form may be a part): as the sequence (Q14654 whole entry, the tested form may be a part) above
T2 sequence (Q09428 whole entry, the tested form may be a part): as the sequence (Q09428 whole entry, the tested form may be a part) above
Description: as §1

[5] = biological target: vascular KATP channels (Kir6.1SRU2B) (Homo sapiens, UniProt O60706+Q15842); details: relevant low concentration; cited from earlier work
[6] = biological target: T3, pancreatic β-cell KATP channels (Rattus norvegicus, UniProt P70673+Q09429); test: Inside-out patch single channel recording in rat pancreatic β-cells, ATP free solution; assay type: cell-based; details: bath-applied
T3 construct: Single Channel Currents of KATP Channels in Rat Pancreatic β-Cells; from tissue; host or cells: rat pancreatic β-cells
T3 sequence (P70673 whole entry): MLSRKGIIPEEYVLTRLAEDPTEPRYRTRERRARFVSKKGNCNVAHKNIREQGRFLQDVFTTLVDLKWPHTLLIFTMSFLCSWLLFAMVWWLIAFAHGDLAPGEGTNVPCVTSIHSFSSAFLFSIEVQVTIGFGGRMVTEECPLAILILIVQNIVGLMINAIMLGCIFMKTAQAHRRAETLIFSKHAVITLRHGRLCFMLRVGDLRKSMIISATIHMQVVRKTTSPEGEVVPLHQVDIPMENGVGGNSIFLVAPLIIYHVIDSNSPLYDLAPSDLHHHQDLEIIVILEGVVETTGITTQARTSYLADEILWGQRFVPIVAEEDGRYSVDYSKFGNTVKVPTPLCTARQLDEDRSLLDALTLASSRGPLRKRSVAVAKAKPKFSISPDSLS
T3 sequence (Q09429 whole entry): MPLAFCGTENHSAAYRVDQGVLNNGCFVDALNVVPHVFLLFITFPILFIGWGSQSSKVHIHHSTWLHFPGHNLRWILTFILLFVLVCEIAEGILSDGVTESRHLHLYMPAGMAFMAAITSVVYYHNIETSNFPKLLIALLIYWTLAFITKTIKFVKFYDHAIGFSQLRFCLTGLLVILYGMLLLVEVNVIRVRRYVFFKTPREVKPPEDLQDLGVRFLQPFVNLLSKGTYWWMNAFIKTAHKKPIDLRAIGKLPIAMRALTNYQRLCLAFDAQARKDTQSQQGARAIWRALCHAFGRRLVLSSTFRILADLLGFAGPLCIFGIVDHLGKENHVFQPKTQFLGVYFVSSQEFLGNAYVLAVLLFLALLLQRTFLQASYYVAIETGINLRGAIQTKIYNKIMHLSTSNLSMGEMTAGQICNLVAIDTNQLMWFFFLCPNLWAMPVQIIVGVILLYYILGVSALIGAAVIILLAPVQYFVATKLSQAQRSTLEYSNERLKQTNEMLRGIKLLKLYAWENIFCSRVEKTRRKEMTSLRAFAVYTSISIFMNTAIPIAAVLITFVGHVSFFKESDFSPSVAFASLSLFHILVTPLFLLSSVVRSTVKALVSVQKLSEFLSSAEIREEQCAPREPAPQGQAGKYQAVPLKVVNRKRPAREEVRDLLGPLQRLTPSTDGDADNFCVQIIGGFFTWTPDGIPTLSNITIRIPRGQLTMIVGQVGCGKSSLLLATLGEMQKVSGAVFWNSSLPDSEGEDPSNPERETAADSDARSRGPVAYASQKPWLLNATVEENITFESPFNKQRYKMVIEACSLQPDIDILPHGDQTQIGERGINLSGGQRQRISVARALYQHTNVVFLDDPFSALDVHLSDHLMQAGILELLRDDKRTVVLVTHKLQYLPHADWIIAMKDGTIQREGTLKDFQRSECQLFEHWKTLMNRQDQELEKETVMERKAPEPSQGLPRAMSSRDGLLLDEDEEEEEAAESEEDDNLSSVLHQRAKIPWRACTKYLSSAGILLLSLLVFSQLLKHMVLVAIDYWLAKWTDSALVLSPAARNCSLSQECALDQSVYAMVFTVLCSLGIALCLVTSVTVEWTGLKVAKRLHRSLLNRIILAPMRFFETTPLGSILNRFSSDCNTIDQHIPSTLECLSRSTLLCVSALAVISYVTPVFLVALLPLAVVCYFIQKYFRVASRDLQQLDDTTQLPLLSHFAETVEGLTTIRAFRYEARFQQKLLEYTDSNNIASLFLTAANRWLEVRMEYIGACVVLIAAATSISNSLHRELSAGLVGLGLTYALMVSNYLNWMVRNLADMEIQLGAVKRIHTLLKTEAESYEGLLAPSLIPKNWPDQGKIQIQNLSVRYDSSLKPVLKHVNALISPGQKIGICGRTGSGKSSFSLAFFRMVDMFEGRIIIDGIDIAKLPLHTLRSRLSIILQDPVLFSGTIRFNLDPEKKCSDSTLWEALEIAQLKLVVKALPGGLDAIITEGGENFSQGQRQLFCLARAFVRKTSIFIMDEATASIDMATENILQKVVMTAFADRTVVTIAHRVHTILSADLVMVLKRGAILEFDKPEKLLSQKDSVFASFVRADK

[7] = biological target: T4, Kir6.2SUR1 KATP channels (Homo sapiens, UniProt Q09428+Q14654); test: Patch-clamp cell attached single-channel recording of transfected Kir6.2SUR1 channels in HEK-293 cells; assay type: cell-based; details: 100 μM; control as 1; THB 6 patches, Ipt 8 patches
T4 construct: expressed in transfected cells; host or cells: HEK-293
T4 sequence (Q14654 whole entry): as the sequence (Q14654 whole entry, the tested form may be a part) above
T4 sequence (Q09428 whole entry): as the sequence (Q09428 whole entry, the tested form may be a part) above
Description: In β-cells, the dominant subtype of KATP is the Kir 6.2SUR1 subtype, as earlier described. Cells transiently transfected with the KATP Kir 6.2SUR1 channel subtype were evaluated for membrane potential and action potential firing using cell-attached recording in the presence or absence of 100 μm THB (FIG. 8A).
To further determine the effects of THB and Ipt on pancreatic β-cell-type KATP channels, the inventor examined the effects of THB or Ipt on the transfected Kir6.2SUR1 KATP channels in HEK-293 cells.

[8] = biological target: T3, pancreatic β-cell KATP channels; test: Whole-cell KATP currents induced by ramp pulses in rat pancreatic β-cells; assay type: cell-based; details: 100 μM bath application; external glucose 5.5 mM; ramp −90 to −50 mV
Description: To determine whether or not THB and Ipt can block pancreatic β-cell KATP channels, whole-cell currents induced by repetitive ramp pulses from −90 to −50 mV (at 0.2 Hz) were recorded in voltage-clamp mode (external glucose=5.5 mM).

[9] = biological target: T5, Kir6.1/SUR2B (Homo sapiens, UniProt O60706+Q15842); test: Whole-cell voltage-clamp currents of KATP channel subtypes, vesicle type; assay type: cell-based; details: 100 μM perfused for 30 sec; currents at −100 mV; n=4
T5 construct: expressed in transfected cells
Description: as §1

[10] = test system: cardiac KATP channels (Kir6.1SUR2A); details: relevant low concentration; cited from earlier work
[11] = test system: D2 receptor and dopamine-opened K+ channels; test: Dopamine-induced membrane potential hyperpolarization in dissociated SNc DA neurons; assay type: cell-based, rat
Description: All experiments were performed at room temperature (22±1° C.).

[12] = test system: SNc DA neurons; test: Perforated patch current-clamp recording of membrane potential and firing of dissociated SNc DA neurons, substance applied alone; assay type: cell-based, rat
Description: (§2) The protocol for preparation of single neurons from the rat SNc was approved by the Institutional Animal Care and Use Committee of the Barrow Neurological Institute. Single DA neurons were acutely dissociated from the SNc of 2-3-week-old Wistar rats following the protocol as previously described. Briefly, rats were anesthetized with isoflurane, and brain tissue was rapidly removed and immersed in cold (2-4° C.) dissection solution which contained: 136.7 mM NaCl, 5 mM KCl, 0.1 mM Na2HPO4, 0.2 mM KH2PO4, 9.84 mM HEPES, 16.6 mM D-glucose, 21.9 mM sucrose, pH 7.3, 330 mOsm, oxygenated with 100% O2 [8]. Three 400-μm coronal slices containing the SNc were cut using a vibrotome (Vibroslice 725M, WPI, Sarasota, Fla.). After cutting, slices were continuously bubbled with 95% O2-5% CO2 at room temperature (22±1° C.) for at least one hour in artificial cerebrospinal fluid (ACSF), which contained: 124 mM NaCl, 5 mM KCl, 24 mM NaHCO3, 1.3 mM MgSO4, 1.2 mM KH2PO4, 2.4 mM CaCl2, and 10 mM glucose, pH 7.4. Thereafter, slices were treated with pronase (1 mg per 6 ml) at 31° C. for 30 minutes in ACSF. The SNc was identified in a coronal slice using a stereo microscope with reference to the rat brain atlas, and was micro-punched out from slices using a well-polished needle. One punched piece was then transferred to a 35-mm culture dish filled with well-oxygenated standard extracellular solution, which contained: 150 mM NaCl, 5 mM KCl, 1 mM MgCl2, 2 mM CaCl2, 10 mM glucose 10, and 10 mM HEPES, pH 7.4 (with Tris-base). The punched piece was then dissociated mechanically using a fire-polished micro-Pasteur pipette under an inverted microscope (Olympus IX-70, Lake Success, N.Y.). The separated cells adhered to the bottom of the culture dish within 30 minutes. In the present study, we used only DA neurons that maintained their original morphological features of polygonal, large or medium somata with 2-4 thick primary dendritic processes were used.
Perforated patch whole-cell recording techniques were employed as previously described. Pipettes (3-5 MΩ) used for perforated patch recording were filled with intracellular recording solution containing 140 mM potassium gluconate, 10 mM KCl, 5 mM MgCl2, and 10 mM HEPES, pH 7.2 (with Tris-OH). The amphotericin B was freshly prepared to 200-240 μg/ml from a 40 mg/ml in DMSO stock. The liquid junction potential was 14 mV calculated using Clamplex 9.2 (Axon Instruments, Foster City, Calif.) and corrections were made for junction potentials post-hoc. After tight seal (>2 GΩ) formation, it usually took about 5-20 min to convert to perforated patch mode, and an access resistance of 20-60 MΩ was accepted to start the experiments. Series resistance was not compensated in this study. The data were filtered at 2 kHz, acquired at 10 kHz and digitized on-line (Digidata 1322 series A/D board, Axon Instruments, Foster City, Calif.). […] Drug application was performed using a computer-controlled “U-tube” system as previously described. All experiments were performed at room temperature (22±1° C.). To enable identification of single, dissociated SNc neurons after a patch-clamp recording session, the recording pipette was filled with a fluorescent dye (lucifer yellow CH, Sigma Chemical Co., St. Louis, Mo., 1.0 mg/ml in the recording electrode) in some experiments. After conversion from the perforated patch to the conventional whole-cell recording mode, the dye was ejected into the cytoplasm by a pulse (200 ms, 0.5 Hz) of hyperpolarizing current (1.0 nA) for 3 min. Labeled cells were visualized using epifluorescence microscopy. […]

[13] = biological target: T6, KATP channels in SNc DA neurons (Rattus norvegicus, UniProt P70673+Q09429); test: Perforated patch current-clamp recording of rotenone-opened KATP channels in dissociated SNc DA neurons; assay type: cell-based; details: for altered membrane potential in the presence of rotenone: FIG. 5C; for altered membrane potential (depolarization) on rotenone-opened KATP channels, analog comparison: 100 μM, 6 neurons, FIG. 4B
T6 construct: functional KATP channels natively expressed on midbrain dopamine neurons; from tissue; host or cells: acutely dissociated dopaminergic neurons of rat substantia nigra pars compacta
T6 sequence (P70673 whole entry): as the sequence (P70673 whole entry) above
T6 sequence (Q09429 whole entry): as the sequence (Q09429 whole entry) above
Description: as §2
Perforated patch whole-cell recording techniques were employed as previously described. Pipettes (3-5 MΩ) used for perforated patch recording were filled with intracellular recording solution containing 140 mM potassium gluconate, 10 mM KCl, 5 mM MgCl2, and 10 mM HEPES, pH 7.2 (with Tris-OH). The amphotericin B was freshly prepared to 200-240 μg/ml from a 40 mg/ml in DMSO stock. The liquid junction potential was 14 mV calculated using Clamplex 9.2 (Axon Instruments, Foster City, Calif.) and corrections were made for junction potentials post-hoc. After tight seal (>2 GΩ) formation, it usually took about 5-20 min to convert to perforated patch mode, and an access resistance of 20-60 MΩ was accepted to start the experiments. Series resistance was not compensated in this study. The data were filtered at 2 kHz, acquired at 10 kHz and digitized on-line (Digidata 1322 series A/D board, Axon Instruments, Foster City, Calif.). […] Drug application was performed using a computer-controlled “U-tube” system as previously described. All experiments were performed at room temperature (22±1° C.). To enable identification of single, dissociated SNc neurons after a patch-clamp recording session, the recording pipette was filled with a fluorescent dye (lucifer yellow CH, Sigma Chemical Co., St. Louis, Mo., 1.0 mg/ml in the recording electrode) in some experiments. After conversion from the perforated patch to the conventional whole-cell recording mode, the dye was ejected into the cytoplasm by a pulse (200 ms, 0.5 Hz) of hyperpolarizing current (1.0 nA) for 3 min. Labeled cells were visualized using epifluorescence microscopy.
Under physiological conditions, the KATP channels are mostly closed. However, in the acutely-dissociated single neurons from rat SNc, there is background opening of KATP channels. […]

[14] = biological target: T7, neuronal KATP channels (Rattus norvegicus, UniProt P70673+Q09429); test: Rotenone-induced outward current in voltage-clamp mode in the presence of the D2 receptor antagonist sulpiride; assay type: cell-based; details: VH −30 mV, 6 neurons
T7 construct: functional KATP channels natively expressed on midbrain dopamine neurons; from tissue; host or cells: acutely dissociated dopaminergic neurons of rat substantia nigra pars compacta
T7 sequence (P70673 whole entry): as the sequence (P70673 whole entry) above
T7 sequence (Q09429 whole entry): as the sequence (Q09429 whole entry) above
Description: as §2, with “In the present study, we used only DA neurons that maintained their original morphological features of polygonal, large or medium somata with 2-4 thick primary dendritic processes were used.” left out
Perforated patch whole-cell recording techniques were employed as previously described. […] The liquid junction potential was 14 mV calculated using Clamplex 9.2 (Axon Instruments, Foster City, Calif.) and corrections were made for junction potentials post-hoc. […]

For `CC(C)NC(C)(C)C(C)C` [Ipt, Iptakalim], the “insulin secretion after bath application” value [1] is given as 34.5±1.8 pg/islet/min, the “concentration at which Ipt blocks neuronal type and pancreatic type of KATP channels” value [2] is given as greater than 30 µM and the “effect on whole-cell current of Kir6.2/SUR2A” value [3] is given as “opens cardiovascular types of KATP channels”. For the same molecule, the “effect on whole-cell current of Kir6.2/SUR1” value [4] was “blocks β-cell-type KATP channels”, the “concentration at which Ipt mainly opens vascular KATP channels” value [5] was less than 10 µM and the “effect on single channel activities opened by ATP free solution” value [6] was “inhibited these single channel activities”. The “normalized NPo value” [7] was 0.50±0.02, the “effect on β-cell KATP channel-mediated whole-cell currents” value [8] was “reduced these β-cell KATP channel-mediated currents” and the “effect on whole-cell current of Kir6.1/SUR2B” value [9] was “opens cardiovascular types of KATP channels”. For the same molecule, the “concentration at which Ipt weakly opens cardiac KATP channels” value [10] was less than 10 µM.
For `CCCCNC(=O)NS(=O)(=O)c1ccc(C)cc1` [tolbutamide], the “altered membrane potential on co-application with dopamine” value ([11]; difference THB vs tolbutamide p>0.05) was 8.5±2.2 mV, the “membrane potential after exposure to substance alone” value ([12]; 100 μM, before: THB −46.5±0.9 (n=7), tolbutamide −44.4±1.6 (n=5)) was −44.1±1.8 mV and the “membrane potential after substance during persistent perfusion of rotenone” value ([13]; 1 μM rotenone, before: THB −61.7±1.3 (n=11), tolbutamide −61.6±1.2 (n=21), p<0.01) was −52.5±1.1 mV. The “altered membrane potential in the presence of rotenone” value ([13]; 1 μM substance) was 0.2±0.1 mV, the “altered membrane potential in the presence of rotenone” value ([13]; 10 μM substance) was 4.4±0.3 mV and the “altered membrane potential in the presence of rotenone” value ([13]; 100 μM substance) was 9.1±0.5 mV. The “Hill coefficient of concentration-effect relationship curve” value ([13]; membrane depolarization in the presence of rotenone) was 2.1, the pIC50 ([13]; membrane depolarization in the presence of rotenone, read-out: IC50 of concentration-effect relationship curve (block of KATP channels)) was 4.98 and the “rotenone-induced outward current amplitude after addition of substance” value ([14]; 100 mM substance as printed, sulpiride present, from 125.8±37.1 pA, p<0.01) was 45.8±23.7 pA.
For `COc1cc2c(cc1O)[C@@H]1Cc3ccc(O)c(OC)c3CN1CC2` [l-SPD, l-stepholidine], the “altered membrane potential (depolarization) on rotenone-opened KATP channels, analog comparison” value [13] was 8.4±1.4 mV.
With `CCN1CCCC1CNC(=O)c1cc(S(N)(=O)=O)ccc1OC` (centres unmarked) [sulpiride] the “effect of D2 receptor antagonist alone on resting membrane potential” value ([12]; exposure alone, neuronal firing rate was increased) was “did not clearly alter resting membrane potential”.
With `NCCc1ccc(O)c(O)c1` [dopamine] the “membrane potential hyperpolarization by dopamine” value ([11]; 10 μM dopamine bath-application, 10 neurons, p<0.01) was 10.5±1.1 mV.
In the case of `C=C(C)[C@H]1Cc2c(ccc3c2O[C@@H]2COc4cc(OC)c(OC)cc4[C@@H]2C3=O)O1` [rotenone], the “membrane potential after perfusion of rotenone” value ([12]; 1 μM rotenone for 1-3 min, averaged resting membrane potential −46.1±0.9 mV, 30 neurons, p<0.001) was −61.1±0.9 mV and the “rotenone-induced outward current amplitude” value ([14]; in the presence of sulpiride) was 125.8±37.1 pA.
With `COc1cc2c(cc1OC)[C@@H]1Cc3ccc(OC)c(OC)c3CN1CC2` [l-THP, l-tetrahydropalmatine] the “altered membrane potential (depolarization) on rotenone-opened KATP channels, analog comparison” value [13] was 3.4±0.5 mV.
In the case of `CC1=Nc2ccc(Cl)cc2S(=O)(=O)N1` [dizoxide], the “effect of KATP channel opener on membrane potential” value ([12]; 300 μM (FIG. 3B legend)) was “hyperpolarized membrane potential”.
